Experimental findings from PMC3590912 (Journal of medicinal chemistry, 2012) are described below.

Data set [1] can be described thus: In vitro metabolic stability in hepatic microsomes with NADPH. The following applies: for in vitro metabolic stability (in words): hepatic microsomes with NADPH, compared with 1.
The test system of a further data set is mice. The experiment in a line: Urearetic activity: urine osmolality in mice under dDAVP stimulation. Type of data set: in vivo, mouse. The following applies: 400 μg intraperitoneal, dDAVP 1 h later, versus formulation alone.
Data set [2] in a line: Pharmacokinetics and renal accumulation in mice. To be noted: intraperitoneal bolus 400 μg, for many hours.

Take `O=S(=O)(c1ccc(OC(F)(F)F)cc1)c1nnn2c1nc(NCc1cccs1)c1sccc12` [3d, Thiophen-2-ylmethyl-[3-(4-trifluoromethoxybenzenesulfonyl)thieno[2,3-e][1,2,3]triazolo-[1,5-a]pyrimidin-5-yl]amine]: the “in vitro metabolic stability (in words)” value in data set [1] was “improved metabolic stability”.
As to `CC(F)(F)c1ccc(S(=O)(=O)c2nnn3c2nc(NCc2cccs2)c2sccc23)cc1` [3k, [3-[4-(1,1-Difluoroethyl)benzenesulfonyl]thieno[2,3-e]-[1,2,3]triazolo[1,5-a]pyrimidin-5-yl]thiophen-2-ylmethylamine], the “reduction of urine osmolality” value in the data set with mice is reported as ~ 0.5 Osm/kg H2O. Further, the “improvement of in vitro metabolic stability compared to 1” value in data set [1] is ~ 40 fold. The “3k concentration in blood, kidney and urine” value in data set [2] was > 1 µM.
For `O=S(=O)(c1ccc(C(F)(F)F)cc1)c1nnn2c1nc(NCc1cccs1)c1sccc12` [3c, Thiophen-2-ylmethyl-[3-(4-trifluoromethylbenzenesulfonyl)thieno[2,3-e][1,2,3]triazolo[1,5-a]pyrimidin-5-yl]amine], the “in vitro metabolic stability (in words)” value in data set [1] is on record as “improved metabolic stability”.
Still for that read-out and setting: the value for `O=S(=O)(c1ccc(Br)cc1)c1nnn2c1nc(NCc1cccs1)c1sccc12` [3i, [3-(4-Bromobenzenesulfonyl)thieno[2,3-e][1,2,3]triazolo-[1,5-a]pyrimidin-5-yl]thiophen-2-ylmethylamine] was “improved metabolic stability”.
